Columns and labels:
Assay in all cases: relative viability (nuclei count vs DMSO), 5 days (fraction); higher = more cells survive
A-427 = tested on: A-427
Summary of the method: (§1)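 After 5 days of treatment, lung cancer cells in 1536-well plates were fixed and stained in a single step (final 0.05% Triton X-100, 1% formaldehyde, 1 ug/ml Hoechst) and their nuclei counted on 4× images. Treatment had been applied by pin tool the day after seeding as one drug alone or as a fixed anchor-drug dose with five library-drug doses (not always all listed) in √10 steps. Relative viability is the nuclei count of treated wells divided by that of vehicle wells, and values are medians of duplicate plates.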

ABC-1 = tested on: ABC-1
Summary of the method: as §1

EMC-BAC-2 = tested on: EMC-BAC-2
Summary of the method: as §1

HARA = tested on: HARA
Summary of the method: as §1

HOP-62 = tested on: HOP-62
Summary of the method: as §1

LK-2 = tested on: LK-2
Summary of the method: as §1

LXF-289 = tested on: LXF-289
Summary of the method: as §1

NCI-H1944 = tested on: NCI-H1944
Summary of the method: as §1

NCI-H1993 = tested on: NCI-H1993
Summary of the method: as §1

NCI-H2009 = tested on: NCI-H2009
Summary of the method: as §1

NCI-H2170 = tested on: NCI-H2170
Summary of the method: as §1

NCI-H2228 = tested on: NCI-H2228
Summary of the method: as §1

NCI-H3122 = tested on: NCI-H3122
Summary of the method: as §1

NCI-H322M = tested on: NCI-H322M
Summary of the method: as §1

NCI-H522 = tested on: NCI-H522
Summary of the method: as §1

NCI-H596 = tested on: NCI-H596
Summary of the method: as §1

NCI-H727 = tested on: NCI-H727
Summary of the method: as §1

PC-3 [JPC-3] = tested on: PC-3 [JPC-3]
Summary of the method: as §1

SK-MES-1 = tested on: SK-MES-1
Summary of the method: as §1

SW 1573 = tested on: SW 1573
Summary of the method: as §1

SW 900 = tested on: SW 900
Summary of the method: as §1

## COc1nc(C)cnc1NS(=O)(=O)c1cccnc1-c1ccc(-c2nnco2)cc1 [Zibotentan] + Cc1cc(Nc2cc(N3CCN(C)CC3)nc(Sc3ccc(NC(=O)C4CC4)cc3)n2)n[nH]1 [Tozasertib] (partner 0.1 µM)
A-427; first compound 0.08 µM
  relative viability: 0.232
A-427; first compound 0.253 µM
  relative viability: 0.205
A-427; first compound 0.8 µM
  relative viability: 0.25
A-427; first compound 2.53 µM
  relative viability: 0.258
ABC-1; first compound 0.08 µM
  relative viability: 0.175
ABC-1; first compound 0.253 µM
  relative viability: 0.163
ABC-1; first compound 0.8 µM
  relative viability: 0.193
ABC-1; first compound 2.53 µM
  relative viability: 0.201
EMC-BAC-2; first compound 0.08 µM
  relative viability: 0.286
EMC-BAC-2; first compound 0.8 µM
  relative viability: 0.293
EMC-BAC-2; first compound 2.53 µM
  relative viability: 0.274
HARA; first compound 0.08 µM
  relative viability: 0.0875
HARA; first compound 0.253 µM
  relative viability: 0.102
HARA; first compound 0.8 µM
  relative viability: 0.13
HARA; first compound 2.53 µM
  relative viability: 0.28
HOP-62; first compound 0.08 µM
  relative viability: 0.333
HOP-62; first compound 0.253 µM
  relative viability: 0.371
HOP-62; first compound 0.8 µM
  relative viability: 0.428
HOP-62; first compound 2.53 µM
  relative viability: 0.359
LK-2; first compound 0.08 µM
  relative viability: 0.148
LK-2; first compound 0.253 µM
  relative viability: 0.191
LK-2; first compound 0.8 µM
  relative viability: 0.166
LK-2; first compound 2.53 µM
  relative viability: 0.198
LXF-289; first compound 0.08 µM
  relative viability: 0.212
LXF-289; first compound 0.253 µM
  relative viability: 0.161
LXF-289; first compound 0.8 µM
  relative viability: 0.227
LXF-289; first compound 2.53 µM
  relative viability: 0.225
NCI-H1944; first compound 0.08 µM
  relative viability: 0.252
NCI-H1944; first compound 0.253 µM
  relative viability: 0.236
NCI-H1944; first compound 0.8 µM
  relative viability: 0.242
NCI-H1944; first compound 2.53 µM
  relative viability: 0.271
NCI-H1993; first compound 0.08 µM
  relative viability: 0.591
NCI-H1993; first compound 0.253 µM
  relative viability: 0.583
NCI-H1993; first compound 0.8 µM
  relative viability: 0.592
NCI-H1993; first compound 2.53 µM
  relative viability: 0.606
NCI-H2009; first compound 0.08 µM
  relative viability: 0.769
NCI-H2009; first compound 0.253 µM
  relative viability: 0.72
NCI-H2009; first compound 0.8 µM
  relative viability: 0.778
NCI-H2009; first compound 2.53 µM
  relative viability: 0.756
NCI-H2170; first compound 0.08 µM
  relative viability: 0.789
NCI-H2170; first compound 0.253 µM
  relative viability: 0.693
NCI-H2170; first compound 0.8 µM
  relative viability: 0.809
NCI-H2170; first compound 2.53 µM
  relative viability: 0.741
NCI-H2228; first compound 0.08 µM
  relative viability: 0.266
NCI-H2228; first compound 0.253 µM
  relative viability: 0.239
NCI-H2228; first compound 0.8 µM
  relative viability: 0.212
NCI-H2228; first compound 2.53 µM
  relative viability: 0.258
NCI-H3122; first compound 0.08 µM
  relative viability: 0.399
NCI-H3122; first compound 0.8 µM
  relative viability: 0.361
NCI-H3122; first compound 2.53 µM
  relative viability: 0.413
NCI-H322M; first compound 0.08 µM
  relative viability: 0.464
NCI-H322M; first compound 0.253 µM
  relative viability: 0.479
NCI-H322M; first compound 0.8 µM
  relative viability: 0.496
NCI-H322M; first compound 2.53 µM
  relative viability: 0.534
NCI-H522; first compound 0.08 µM
  relative viability: 0.573
NCI-H522; first compound 0.253 µM
  relative viability: 0.606
NCI-H522; first compound 0.8 µM
  relative viability: 0.599
NCI-H522; first compound 2.53 µM
  relative viability: 0.568
NCI-H596; first compound 0.08 µM
  relative viability: 0.883
NCI-H596; first compound 0.253 µM
  relative viability: 0.846
NCI-H596; first compound 0.8 µM
  relative viability: 0.684
NCI-H596; first compound 2.53 µM
  relative viability: 1.07
NCI-H727; first compound 0.08 µM
  relative viability: 0.692
NCI-H727; first compound 0.253 µM
  relative viability: 0.624
NCI-H727; first compound 0.8 µM
  relative viability: 0.629
NCI-H727; first compound 2.53 µM
  relative viability: 0.648
PC-3 [JPC-3]; first compound 0.08 µM
  relative viability: 0.869
PC-3 [JPC-3]; first compound 0.253 µM
  relative viability: 0.903
PC-3 [JPC-3]; first compound 0.8 µM
  relative viability: 0.853
PC-3 [JPC-3]; first compound 2.53 µM
  relative viability: 0.878
SK-MES-1; first compound 0.08 µM
  relative viability: 0.999
SK-MES-1; first compound 0.253 µM
  relative viability: 0.809
SK-MES-1; first compound 0.8 µM
  relative viability: 0.874
SK-MES-1; first compound 2.53 µM
  relative viability: 0.877
SW 1573; first compound 0.08 µM
  relative viability: 0.229
SW 1573; first compound 0.8 µM
  relative viability: 0.257
SW 1573; first compound 2.53 µM
  relative viability: 0.221
SW 900; first compound 0.08 µM
  relative viability: 0.553
SW 900; first compound 0.253 µM
  relative viability: 0.549
SW 900; first compound 0.8 µM
  relative viability: 0.617
SW 900; first compound 2.53 µM
  relative viability: 0.586

## COc1nc(C)cnc1NS(=O)(=O)c1cccnc1-c1ccc(-c2nnco2)cc1 [Zibotentan] + O=C(CCCCCCC(=O)Nc1ccccc1)NO [Vorinostat] (partner 1 µM)
A-427; first compound 0.08 µM
  relative viability: 0.921
A-427; first compound 0.253 µM
  relative viability: 0.848
A-427; first compound 0.8 µM
  relative viability: 0.905
A-427; first compound 2.53 µM
  relative viability: 0.928
ABC-1; first compound 0.08 µM
  relative viability: 1.01
ABC-1; first compound 0.253 µM
  relative viability: 0.77
ABC-1; first compound 0.8 µM
  relative viability: 1.05
ABC-1; first compound 2.53 µM
  relative viability: 1.53
EMC-BAC-2; first compound 0.08 µM
  relative viability: 0.907
EMC-BAC-2; first compound 0.8 µM
  relative viability: 0.546
EMC-BAC-2; first compound 2.53 µM
  relative viability: 0.514
HARA; first compound 0.08 µM
  relative viability: 0.638
HARA; first compound 0.253 µM
  relative viability: 0.633
HARA; first compound 0.8 µM
  relative viability: 0.569
HARA; first compound 2.53 µM
  relative viability: 0.568
HOP-62; first compound 0.08 µM
  relative viability: 0.676
HOP-62; first compound 0.253 µM
  relative viability: 0.57
HOP-62; first compound 0.8 µM
  relative viability: 0.735
HOP-62; first compound 2.53 µM
  relative viability: 0.623
LK-2; first compound 0.08 µM
  relative viability: 0.304
LK-2; first compound 0.253 µM
  relative viability: 0.305
LK-2; first compound 0.8 µM
  relative viability: 0.338
LK-2; first compound 2.53 µM
  relative viability: 0.209
LXF-289; first compound 0.08 µM
  relative viability: 0.769
LXF-289; first compound 0.253 µM
  relative viability: 0.713
LXF-289; first compound 0.8 µM
  relative viability: 0.766
LXF-289; first compound 2.53 µM
  relative viability: 0.746
NCI-H1944; first compound 0.08 µM
  relative viability: 0.674
NCI-H1944; first compound 0.253 µM
  relative viability: 0.533
NCI-H1944; first compound 0.8 µM
  relative viability: 0.508
NCI-H1944; first compound 2.53 µM
  relative viability: 0.631
NCI-H1993; first compound 0.08 µM
  relative viability: 1.05
NCI-H1993; first compound 0.253 µM
  relative viability: 0.764
NCI-H1993; first compound 0.8 µM
  relative viability: 0.826
NCI-H1993; first compound 2.53 µM
  relative viability: 0.988
NCI-H2009; first compound 0.08 µM
  relative viability: 0.705
NCI-H2009; first compound 0.253 µM
  relative viability: 0.705
NCI-H2009; first compound 0.8 µM
  relative viability: 0.72
NCI-H2009; first compound 2.53 µM
  relative viability: 0.893
NCI-H2170; first compound 0.08 µM
  relative viability: 0.883
NCI-H2170; first compound 0.253 µM
  relative viability: 0.778
NCI-H2170; first compound 0.8 µM
  relative viability: 0.875
NCI-H2170; first compound 2.53 µM
  relative viability: 0.908
NCI-H2228; first compound 0.08 µM
  relative viability: 0.805
NCI-H2228; first compound 0.253 µM
  relative viability: 0.719
NCI-H2228; first compound 0.8 µM
  relative viability: 0.613
NCI-H2228; first compound 2.53 µM
  relative viability: 0.92
NCI-H3122; first compound 0.08 µM
  relative viability: 1.05
NCI-H3122; first compound 0.253 µM
  relative viability: 1.03
NCI-H3122; first compound 0.8 µM
  relative viability: 1.02
NCI-H3122; first compound 2.53 µM
  relative viability: 1.02
NCI-H322M; first compound 0.08 µM
  relative viability: 1.03
NCI-H322M; first compound 0.253 µM
  relative viability: 0.748
NCI-H322M; first compound 0.8 µM
  relative viability: 0.895
NCI-H322M; first compound 2.53 µM
  relative viability: 0.93
NCI-H522; first compound 0.08 µM
  relative viability: 0.928
NCI-H522; first compound 0.253 µM
  relative viability: 0.887
NCI-H522; first compound 0.8 µM
  relative viability: 1.03
NCI-H522; first compound 2.53 µM
  relative viability: 0.946
NCI-H596; first compound 0.08 µM
  relative viability: 0.568
NCI-H596; first compound 0.253 µM
  relative viability: 0.533
NCI-H596; first compound 0.8 µM
  relative viability: 0.591
NCI-H596; first compound 2.53 µM
  relative viability: 0.713
NCI-H727; first compound 0.08 µM
  relative viability: 1.19
NCI-H727; first compound 0.253 µM
  relative viability: 1.24
NCI-H727; first compound 0.8 µM
  relative viability: 1.07
NCI-H727; first compound 2.53 µM
  relative viability: 1.19
PC-3 [JPC-3]; first compound 0.08 µM
  relative viability: 1.19
PC-3 [JPC-3]; first compound 0.253 µM
  relative viability: 0.561
PC-3 [JPC-3]; first compound 0.8 µM
  relative viability: 0.72
PC-3 [JPC-3]; first compound 2.53 µM
  relative viability: 0.867
SK-MES-1; first compound 0.08 µM
  relative viability: 1.18
SK-MES-1; first compound 0.253 µM
  relative viability: 0.793
SK-MES-1; first compound 0.8 µM
  relative viability: 1.09
SK-MES-1; first compound 2.53 µM
  relative viability: 1.12
SW 1573; first compound 0.08 µM
  relative viability: 0.76
SW 1573; first compound 0.8 µM
  relative viability: 0.957
SW 1573; first compound 2.53 µM
  relative viability: 0.885
SW 900; first compound 0.08 µM
  relative viability: 0.559
SW 900; first compound 0.253 µM
  relative viability: 0.404
SW 900; first compound 0.8 µM
  relative viability: 0.552
SW 900; first compound 2.53 µM
  relative viability: 0.588

From the supplement of paper PMC10307832
